{"source": "patent US20260138969A1", "about": "(Korea Research Institute of Chemical Technology, priority 2023, published 2026)", "format_in_all_cases": "in vivo", "key": {"[1]": {"tested_on": "MPTP-induced PD mouse model", "experiment": "MPTP-induced PD mouse model: TH staining of striatum and substantia nigra", "details": "for TH levels in the substantia nigra / TH levels in the striatum: vs control group (G1); for TH levels in substantia nigra / TH levels in striatum: PO QD Day 1-7, Example 3 2/10/50 mg/kg, Example 2 50 mg/kg, vs MPTP group G2; for TH levels in striatum: Nilotinib 40 mg/kg", "protocol": "Mice at 7 weeks of age were divided into 7 groups as shown in Table 9 below to generate an acute MPTP model and proceed with drug administration: control group+vehicle (G1), MPTP+vehicle (G2), MPTP+Nilotinib 40 mg/kg (G3), MPTP+Example 3 2 mg/kg (G4), MPTP+Example 3 10 mg/kg (G5), MPTP+Example 3 50 mg/kg (G6), and MPTP+Example 2 50 mg/kg (G7). The test drug was administered orally (PO) at 10 ml/kg once daily (QD) from Day 1 to Day 7. The acute MPTP model will be performed at 2-hour intervals in all groups except the control group. […] was administered as intraperitoneal (IP) injection for 4 doses. The control group was given the same amount of 0.9% saline. The Pole test was performed on day 4 (after training on day 2 and day 3). On day 7, all mice were euthanized, and their brains were harvested.\nMice were euthanized with Zoletil administration for collection of tissue samples for staining and analysis of histological sections. Blood was collected from the heart of the mouse and then the residual blood was perfused with phosphate-buffered saline (PBS). For half of the mice (n=6/group), the brain was incised into the striatum, substantia nigra, and the rest of the brain, flash-frozen, and stored at −80° C. The remaining mice (n=6/group) had their brains isolated and immobilized in 4% paraformaldehyde for 24 hours at 4° C., followed by 30% sucrose in phosphate-buffered saline (PBS) containing 0.02% sodium azide and stored at 4° C. for 3 days. Immunohistochemical sections were performed on brain samples embedded with optimal cutting temperature (OCT) compounds. Samples were sectioned to a thickness of 20 μm using Leica CM1950 (Leica Microsystems, Germany) and stored at 4° C. in a preservation solution until staining with antibodies.\nAfter staining the striatum and substantia nigra of the brain and mounting them on microscopic slides, the slides were washed with PBS containing 0.3% Triton X-100 and peroxidase block for 15 min at room temperature. The slides were washed three times with PBS containing 0.3% Triton X-100 and then blocked at RT (room temperature) for 1 hour in a solution containing PBS, 5% normal goat serum, and 0.3% Triton X-100. Tyrosine hydroxylase antibody was diluted at 1:1000 and incubated overnight at 4° C. The slides were washed with PBS solution and incubated for 1 h at RT with secondary antibody. The slides were washed with PBS solution and the sections were placed in the solution to proceed with the DAB (diaminobenzidine) reaction.\nThe DAB response was monitored under a microscope for 2 to 3 minutes, and the slides were washed with PBS to stop the DAB response, dehydrated, and mounted using xylene. An Olympus microscope (Olympus, SZ61, BX51) was used to visualize TH stained images. The optical density (OD) value of positive TH staining was measured in the striatum and substantia nigra and analyzed using Image J software."}, "[2]": {"tested_on": "α-Syn transgenic Parkinson's disease mouse model", "experiment": "α-Syn transgenic Parkinson's disease mouse model: TH staining of striatum", "details": "9 months of age; Example 3 2/10/50 mg/kg, Example 2 2 mg/kg PO QD; vs G2", "protocol": "(§1) The test drug was administered once daily (QD) via oral administration (PO) with a solution of 5 ml/kg for 5 months from 4 months to 9 months of age. Motor behavior tests (beam test) and neurological scores (modified Irwin test) were performed at 4 months (before administration), 7 months, and 9 months. After the final behavioral test, tissue samples were taken. Weight was measured on the same day once a week from 4 months of age until the end of the study.\nAt 9 months of age, the measurement period ended, the mice were anesthetized, and then the experiment was terminated by cardiac puncture according to IACUC guidelines. Mice were perfused transcardially with 0.9% saline for tissue staining, followed by 4% paraformaldehyde until the mice were fixed. The brains were isolated and immobilized by soaking in 4% paraformaldehyde at 4° C. for 24 hours, followed by 30% sucrose added to PBS containing 0.02% sodium azide and stored at 4° C. for 3 days. Brain samples embedded in OCT compounds were sectioned to a thickness of 20 μm using Leica CM1950 (Leica Microsystems, Germany). The sections were stored at 4° C. in a preservation solution until they were stained by antibodies. […]\nTH-stained brain tissue was imaged using an immunofluorescence microscope (Olympus, BZ21) in Olympus. The fluorescence intensity of the striatum was analyzed using Image J software."}, "[3]": {"tested_on": "α-Syn transgenic Parkinson's disease mouse model", "experiment": "α-Syn transgenic Parkinson's disease mouse model: neurological score (modified Irwin test)", "details": "Example 3 2/10/50 mg/kg, Example 2 2 mg/kg PO QD 5 months; vs TG+carrier (G2)", "protocol": "as §1\nScores were recorded by direct observation of mice in cages for neurological behavioral disorders, except for startle reflex, tail pinch, and righting reflex. To test the startle reflex, a small remote control was used to make loud noises and check behaviors such as jumping, stopping, and blinking quickly. For the […] reflex, each mouse was removed from the cage and placed with its back facing the floor so that the mouse could correct its posture on its own. The tail pinch reflex was tested by gently squeezing the tip of the tail with forceps.\nA score of 0 was given if there were normal or no abnormal features such as motor activity, 1 point if mild abnormalities were observed, and 2 to 3 points were given if serious abnormalities were observed. The scores for all observed behaviors for each mouse were added, and the average of the added scores for each group was calculated."}}, "data": [{"smiles": "Cc1cc(F)c(C(=O)Nc2cccc(-n3nnc4c3CCC4)n2)cc1-n1cnc(C2CC2)c1", "note": "[Example 2, 5-(4-cyclopropyl-1H-imidazole-1-yl)-N-(6-(5,6-dihydrocyclopenta[d][1,2,3]triazole-1 (4H)-yl)pyridine-2-yl)-2-fluoro-4-methylbenzamide]", "values": [{"measurement": "TH levels in the substantia nigra", "setting": "[1]; 50 mg/kg PO QD", "value": "significantly higher than in the control group (G1)"}, {"measurement": "TH levels in substantia nigra", "setting": "[1]", "value": "significant increase"}, {"measurement": "TH levels in striatum", "setting": "[1]", "value": "significant increase"}, {"measurement": "TH staining intensity of striatum", "setting": "[2]", "value": "significantly higher than that of group G2"}, {"measurement": "neurological score", "setting": "[3]", "value": "significantly reduced the neurological score of TG mice compared to G2"}]}, {"smiles": "Cc1cc(F)c(C(=O)Nc2cccc(-n3nnc4c3CCCC4)n2)cc1-n1cnc(C2CC2)c1", "note": "[Example 3, 5-(4-cyclopropyl-1H-imidazole-1-yl)-2-fluoro-4-methyl-N-(6-(4,5,6,7-tetrahydro-1H-benzo[d][1,2,3]triazole-1-yl)pyridine-2-yl)benzamide]", "values": [{"measurement": "TH levels in the striatum", "setting": "[1]; 10 mg/kg PO QD", "value": "significantly higher than in the control group (G1)"}, {"measurement": "TH levels in the substantia nigra", "setting": "[1]; 10 mg/kg PO QD", "value": "significantly higher than in the control group (G1)"}, {"measurement": "TH levels in the striatum", "setting": "[1]; 50 mg/kg PO QD", "value": "significantly higher than in the control group (G1)"}, {"measurement": "TH levels in the substantia nigra", "setting": "[1]; 50 mg/kg PO QD", "value": "significantly higher than in the control group (G1)"}, {"measurement": "TH levels in substantia nigra", "setting": "[1]", "value": "significant increase"}, {"measurement": "TH levels in striatum", "setting": "[1]", "value": "significant increase"}, {"measurement": "TH staining intensity of striatum", "setting": "[2]", "value": "significantly higher than that of group G2"}, {"measurement": "neurological score", "setting": "[3]", "value": "significantly reduced the neurological score of TG mice compared to G2"}]}]}
